From patent publication US12522602B2, “Derivatives having 2,3-dihydro-1H-indene or 2,3-dihydrobenzofuran moiety or pharmaceutically acceptable salt thereof and pharmaceutical compositions comprising the same” (YUHAN CORPORATION, priority 2019, dated 2026)
pIC50: −log10 of the molar value.

Tested on: GM1 production in Jurkat cells
Test: cells
Type: cell-based
Details: Homo sapiens, Jurkat, 72 h

Row | Compound | pIC50
1 | CC1(C)Cc2cc(-c3coc4ccccc34)ccc2C1NC(=O)O[C@@H]1CN2CCC1CC2 (stereo partly drawn) [Example 157, (S)-quinuclidin-3-yl (5-(benzofuran-3-yl)-2,2-dimethyl-2,3-dihydro-1H-inden-1-yl)carbamate] | 8.55
2 | CCCOc1cc(F)cc(-c2ccc3c(c2)CC(C)(C)C3NC(=O)O[C@@H]2CN3CCC2CC3)c1 (stereo partly drawn) [Example 257, (S)-quinuclidin-3-yl (5-(3-fluoro-5-propoxyphenyl)-2,2-dimethyl-2,3-dihydro-1H-inden-1-yl)carbamate] | 7.56
3 | CC1(C)Cc2cc(-c3cc(F)c(F)cc3F)ccc2C1NC(=O)O[C@@H]1CN2CCC1CC2 (stereo partly drawn) [Example 96, (S)-quinuclidin-3-yl (2,2-dimethyl-5-(2,4,5-trifluorophenyl)-2,3-dihydro-1H-inden-1-yl)carbamate] | 7.79
4 | Cc1cc(-c2ccc3c(c2)CC(C)(C)C3NC(=O)O[C@@H]2CN3CCC2CC3)cc(C)c1OC(C)C (stereo partly drawn) [Example 194, (S)-quinuclidin-3-yl (5-(4-isopropoxy-3,5-dimethylphenyl)-2,2-dimethyl-2,3-dihydro-1H-inden-1-yl)carbamate] | 7.32
5 | COc1ccc(C(C)C)cc1-c1ccc2c(c1)CC(C)(C)C2NC(=O)O[C@@H]1CN2CCC1CC2 (stereo partly drawn) [Example 232, (S)-quinuclidin-3-yl (5-(5-isopropyl-2-methoxyphenyl)-2,2-dimethyl-2,3-dihydro-1H-inden-1-yl)carbamate] | 7.90
6 | CC(C)Oc1ccc(-c2cc3c(cc2F)C(NC(=O)O[C@@H]2CN4CCC2CC4)C(C)(C)C3)cc1 (stereo partly drawn) [Example 358, (S)-quinuclidin-3-yl (6-fluoro-5-(4-isopropoxyphenyl)-2,2-dimethyl-2,3-dihydro-1H-inden-1-yl)carbamate] | 8.11
7 | COc1ccc(C#N)cc1-c1ccc2c(c1)CC(C)(C)C2NC(=O)O[C@@H]1CN2CCC1CC2 (stereo partly drawn) [Example 244, (S)-quinuclidin-3-yl (5-(5-cyano-2-methoxyphenyl)-2,2-dimethyl-2,3-dihydro-1H-inden-1-yl)carbamate] | 7.42
8 | CC1(C)Cc2cc(-c3cc(F)cc(F)c3)ccc2C1NC(=O)O[C@@H]1CN2CCC1CC2 (stereo partly drawn) [Example 90, (S)-quinuclidin-3-yl (5-(3,5-difluorophenyl)-2,2-dimethyl-2,3-dihydro-1H-inden-1-yl)carbamate] | 7.42
9 | CC(C)Cc1cccc(-c2ccc3c(c2)CC(C)(C)C3NC(=O)O[C@@H]2CN3CCC2CC3)c1 (stereo partly drawn) [Example 269, (S)-quinuclidin-3-yl (5-(3-isobutylphenyl)-2,2-dimethyl-2,3-dihydro-1H-inden-1-yl)carbamate] | 8.19
10 | CC1(C)Cc2cc(-c3cc(Cl)cc(Cl)c3)ccc2C1NC(=O)O[C@@H]1CN2CCC1CC2 (stereo partly drawn) [Example 94, (S)-quinuclidin-3-yl (5-(3,5-dichlorophenyl)-2,2-dimethyl-2,3-dihydro-1H-inden-1-yl)carbamate] | 7.63
11 | O=C(NC1CCc2cc(-c3ccc(C(F)(F)F)cc3)ccc21)O[C@@H]1CN2CCC1CC2 (stereo partly drawn) [Example 3, (S)-quinuclidin-3-yl (5-(4-(trifluoromethyl)phenyl)-2,3-dihydro-1H-inden-1-yl)carbamate] | 6.85
12 | Cc1cc(F)ccc1-c1ccc2c(c1)CC(C)(C)C2NC(=O)O[C@@H]1CN2CCC1CC2 (stereo partly drawn) [Example 228, (S)-quinuclidin-3-yl (5-(4-fluoro-2-methylphenyl)-2,2-dimethyl-2,3-dihydro-1H-inden-1-yl)carbamate] | 7.31
13 | COc1cc(-c2ccc3c(c2)CC(C)(C)C3NC(=O)O[C@@H]2CN3CCC2CC3)cc(C(F)(F)F)c1 (stereo partly drawn) [Example 224, (S)-quinuclidin-3-yl (5-(3-methoxy-5-(trifluoromethyl)phenyl)-2,2-dimethyl-2,3-dihydro-1H-inden-1-yl)carbamate] | 7.73
14 | Cc1ccc(-c2ccc3c(c2)C(NC(=O)O[C@@H]2CN4CCC2CC4)CC3)cc1 (stereo partly drawn) [Example 38, (S)-quinuclidin-3-yl (6-(p-tolyl)-2,3-dihydro-1H-inden-1-yl)carbamate] | 7.21
15 | CC(C)Oc1ccc(-c2ccc3c(c2)CC(C)(C)C3NC(=O)O[C@@H]2CN3CCC2CC3)cc1 (stereo partly drawn) [Example 144, (S)-quinuclidin-3-yl (5-(4-isopropoxyphenyl)-2,2-dimethyl-2,3-dihydro-1H-inden-1-yl)carbamate] | 8.21
16 | CC1(C)Oc2cc(-c3cccc(OC(F)(F)F)c3)ccc2C1NC(=O)O[C@@H]1CN2CCC1CC2 (stereo partly drawn) [Example 410, (S)-quinuclidin-3-yl (2,2-dimethyl-6-(3-(trifluoromethoxy)phenyl)-2,3-dihydrobenzofuran-3-yl)carbamate] | 7.89
17 | CC1(C)CC(NC(=O)O[C@@H]2CN3CCC2CC3)c2ccc(-c3ccccc3OC(F)(F)F)cc21 (stereo partly drawn) [Example 403, (S)-quinuclidin-3-yl (3,3-dimethyl-5-(2-(trifluoromethoxy)phenyl)-2,3-dihydro-1H-inden-1-yl)carbamate] | 7.07
18 | CC1(C)Cc2cc(-c3cccc(F)c3)c(F)cc2C1NC(=O)O[C@@H]1CN2CCC1CC2 (stereo partly drawn) [Example 370, (S)-quinuclidin-3-yl (6-fluoro-5-(3-fluorophenyl)-2,2-dimethyl-2,3-dihydro-1H-inden-1-yl)carbamate] | 7.41

Row | Compound | pIC50
19 | CCCOc1ccc(-c2ccc3c(c2)CC(C)(C)C3NC(=O)O[C@@H]2CN3CCC2CC3)cc1Cl (stereo partly drawn) [Example 207, (S)-quinuclidin-3-yl (5-(3-chloro-4-propoxyphenyl)-2,2-dimethyl-2,3-dihydro-1H-inden-1-yl)carbamate] | 7.23
20 | COc1ncc(-c2ccc3c(c2)CC(C)(C)C3NC(=O)O[C@@H]2CN3CCC2CC3)cc1C(F)(F)F (stereo partly drawn) [Example 188, (S)-quinuclidin-3-yl (5-(6-methoxy-5-(trifluoromethyl)pyridin-3-yl)-2,2-dimethyl-2,3-dihydro-1H-inden-1-yl)carbamate] | 7.34
21 | CC1(C)Cc2cc(-c3ccc(C(F)(F)F)cc3Cl)ccc2C1NC(=O)O[C@@H]1CN2CCC1CC2 (stereo partly drawn) [Example 183, (S)-quinuclidin-3-yl (5-(2-chloro-4-(trifluoromethyl)phenyl)-2,2-dimethyl-2,3-dihydro-1H-inden-1-yl)carbamate] | 7.73
22 | COc1ccc(-c2cc3c(cc2F)C(NC(=O)O[C@@H]2CN4CCC2CC4)C(C)(C)C3)c(OC)c1 (stereo partly drawn) [Example 381, (S)-quinuclidin-3-yl (5-(2,4-dimethoxyphenyl)-6-fluoro-2,2-dimethyl-2,3-dihydro-1H-inden-1-yl)carbamate] | 7.22
23 | CCC1(CC)Cc2cc(-c3ccoc3)ccc2C1NC(=O)O[C@@H]1CN2CCC1CC2 (stereo partly drawn) [Example 307, (S)-quinuclidin-3-yl (2,2-diethyl-5-(furan-3-yl)-2,3-dihydro-1H-inden-1-yl)carbamate] | 7.52
24 | CCC1(CC)Cc2cc(-c3cccc(C(F)F)c3)ccc2C1NC(=O)O[C@@H]1CN2CCC1CC2 (stereo partly drawn) [Example 301, (S)-quinuclidin-3-yl (5-(3-(difluoromethyl)phenyl)-2,2-diethyl-2,3-dihydro-1H-inden-1-yl)carbamate] | 8.02
25 | CC1(C)Cc2cc(-c3cccc(C(F)(F)F)c3Cl)ccc2C1NC(=O)O[C@@H]1CN2CCC1CC2 (stereo partly drawn) [Example 182, (S)-quinuclidin-3-yl (5-(2-chloro-3-(trifluoromethyl)phenyl)-2,2-dimethyl-2,3-dihydro-1H-inden-1-yl)carbamate] | 7.68
26 | COc1cc2c(cc1-c1cccc(OC(C)C)c1)CC(C)(C)C2NC(=O)O[C@@H]1CN2CCC1CC2 (stereo partly drawn) [Example 341, (S)-quinuclidin-3-yl (5-(3-isopropoxyphenyl)-6-methoxy-2,2-dimethyl-2,3-dihydro-1H-inden-1-yl)carbamate] | 7.21
27 | CC(C)Oc1ccc(F)c(-c2ccc3c(c2)CC(C)(C)C3NC(=O)O[C@@H]2CN3CCC2CC3)c1 (stereo partly drawn) [Example 172, (S)-quinuclidin-3-yl (5-(2-fluoro-5-isopropoxyphenyl)-2,2-dimethyl-2,3-dihydro-1H-inden-1-yl)carbamate] | 7.31
28 | CC1(C)Cc2cc(-c3ccc4nccnc4c3)ccc2C1NC(=O)O[C@@H]1CN2CCC1CC2 (stereo partly drawn) [Example 191, (S)-quinuclidin-3-yl (2,2-dimethyl-5-(quinoxalin-6-yl)-2,3-dihydro-1H-inden-1-yl)carbamate] | 6.91
29 | COCCOc1ccc(-c2ccc3c(c2)C(NC(=O)O[C@@H]2CN4CCC2CC4)C(C)(C)C3)cc1 (stereo partly drawn) [Example 72, (S)-quinuclidin-3-yl (6-(4-(2-methoxyethoxy)phenyl)-2,2-dimethyl-2,3-dihydro-1H-inden-1-yl)carbamate] | 7.24
30 | CC(C)Oc1ccc(-c2cc3c(cc2F)C(NC(=O)O[C@@H]2CN4CCC2CC4)C(C)(C)C3)cc1Cl (stereo partly drawn) [Example 359, (S)-quinuclidin-3-yl (5-(3-chloro-4-isopropoxyphenyl)-6-fluoro-2,2-dimethyl-2,3-dihydro-1H-inden-1-yl)carbamate] | 7.48
31 | CCC1(CC)Cc2cc(-c3ccc(C(C)C)cc3)ccc2C1NC(=O)O[C@@H]1CN2CCC1CC2 (stereo partly drawn) [Example 282, (S)-quinuclidin-3-yl (2,2-diethyl-5-(4-isopropylphenyl)-2,3-dihydro-1H-inden-1-yl)carbamate] | 8.25
32 | CC(C)COc1ccc(-c2cc3c(cc2F)C(NC(=O)O[C@@H]2CN4CCC2CC4)C(C)(C)C3)cc1 (stereo partly drawn) [Example 362, (S)-quinuclidin-3-yl (6-fluoro-5-(4-isobutoxyphenyl)-2,2-dimethyl-2,3-dihydro-1H-inden-1-yl)carbamate] | 8.60
33 | CC1(C)Cc2cc(-c3ccco3)ccc2C1NC(=O)O[C@@H]1CN2CCC1CC2 (stereo partly drawn) [Example 193, (S)-quinuclidin-3-yl (5-(furan-2-yl)-2,2-dimethyl-2,3-dihydro-1H-inden-1-yl)carbamate] | 7.82
34 | Cc1cccc(-c2ccc3c(c2)CC(C)(C)C3NC(=O)O[C@@H]2CN3CCC2CC3)c1F (stereo partly drawn) [Example 243, (S)-quinuclidin-3-yl (5-(2-fluoro-3-methylphenyl)-2,2-dimethyl-2,3-dihydro-1H-inden-1-yl)carbamate] | 7.67
35 | Cc1cc(-c2cc3c(cc2F)C(NC(=O)O[C@@H]2CN4CCC2CC4)C(C)(C)C3)cc(C)c1OC(C)C (stereo partly drawn) [Example 388, (S)-quinuclidin-3-yl (6-fluoro-5-(4-isopropoxy-3,5-dimethylphenyl)-2,2-dimethyl-2,3-dihydro-1H-inden-1-yl)carbamate] | 7.03
